Tests used:
[1] = system: differentiated 3T3-L1 mouse adipocyte cells; assay: Adipocyte glucose consumption in differentiated 3T3-L1 mouse adipocyte cells (loss of glucose from medium, colorimetric); type: cell-based; settings: compound 10 μM, 22 to 24 hours, differentiated 3T3-L1 adipocytes, compound/DMSO, read-out: Glucose consumption (fold change) Mean
Outline: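 3T3-L1 cells were differentiated with rosiglitazone, dexamethasone, IBMX and insulin, then used on day 11 or 12. Medium glucose was measured colorimetrically, and consumption was given as mean fold change versus DMSO ± SD.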

[2] = molecular target: T1, His6 tagged human recombinant FABP4 (Homo sapiens, UniProt P15090); assay: FABP4 Tb TR-FRET assay: displacement of BODIPY FL C12 fatty acid from His6-FABP4; settings: triplicates, inhibition of BODIPY FL C12 binding
T1 construct: purchased Cayman Chemicals 10009549
T1 sequence (P15090 whole entry): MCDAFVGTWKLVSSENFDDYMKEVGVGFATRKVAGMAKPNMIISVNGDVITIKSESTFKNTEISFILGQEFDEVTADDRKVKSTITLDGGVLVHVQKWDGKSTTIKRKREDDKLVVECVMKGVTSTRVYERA
Text: Activity of compounds with FABP4 was profiled using a Terbium (Tb) based time resolved fluorescence energy transfer (TR-FRET) assay. The assay measures the compound mediated displacement of the fluorescent fatty acid BODIPY FL C12 (Thermo Fisher; catalog number D3822) from His6 tagged human recombinant FABP4 (His6-FABP4; Cayman Chemicals, catalog number 10009549) via recording the energy transfer from TB donor molecule on anti-His6-tag antibody to acceptor BODIPY moiety. Briefly, compounds were prepared at a concentration of 0.362 mM and 0.0362 mM, and BODIPY FL C12 was prepared at 4.2 μM, in DMSO. 1.2 μL of each compound or DMSO (vehicle control) and 1.2 μL of BODIPY FL C12 were added into the wells of a 384-well black polypropylene plate. His6-FABP4 and Tb anti-His6 antibody were prepared in the assay buffer (25 mM Tris/HCl, pH 7.4, 0.4 mg/ml γ-globulins, 0.010% NP-40, 1 mM DTT) at a concentration of 83 nM and 49.6 nM, respectively. The protein and antibody solutions were then mixed at a ratio of 34:7 (v/v) and incubated on ice for 30 minutes. The assay was initiated by adding 41 μL of the resulting protein/antibody solution into the wells containing the compounds and BODIPY FL C12. The plate was centrifuged and incubated at room temperature for 10 min. The TR-FRET signals were recorded using an EnVision Multilabel plate reader (PerkinElmer; TB excitation 320 nm, BODIPY FL C12 emission 520 nm; TB emission 615 nm). Relative fluorescence ratio (520 nm*10,000/615 nm) were used to calculate the compound mediated inhibition of BODIPY C12 FL fatty acid binding to FABP4. […] Glucose consumption and FABP4 inhibition is shown below in Table 3 below.

CCCCCCC1CCCc2c(n(Cc3ccc4ocnc4c3)c3c(C(=O)O)cccc23)C1 (centres unmarked) [5-[(1,3-benzoxazol-5-yl)methyl]-7-hexyl-5H,6H,7H,8H,9H,10H-cyclohepta[b]indole-4-carboxylic acid]
fold induction at 10 µM [1]: 0.87
inhibition at 1 µM ([2]; 1 μM compound): 88%

CCCCCCC1CCCc2c(n(Cc3ccccc3C#N)c3c(C(=O)O)cccc23)C1 (centres unmarked) [5-[(2-cyanophenyl)methyl]-7-hexyl-5H,6H,7H,8H,9H,10H-cyclohepta[b]indole-4-carboxylic acid]
fold induction at 10 µM [1]: 0.91
inhibition at 1 µM ([2]; 1 μM compound): 88.5%

CCCCCCC1CCCc2c(n(Cc3cc(C#N)cs3)c3c(C(=O)O)cccc23)C1 (centres unmarked) [5-[(4-cyanothiophen-2-yl)methyl]-7-hexyl-5H,6H,7H,8H,9H,10H-cyclohepta[b]indole-4-carboxylic acid]
inhibition at 1 µM ([2]; 1 μM compound): 83.3%
inhibition at 10 µM ([2]; 10 μM compound): 89.4%

CCCCCCC1CCCc2c(n(Cc3cccc(OC)c3)c3c(C(=O)O)cccc23)C1 (centres unmarked) [7-hexyl-5-[(3-methoxyphenyl)methyl]-5H,6H,7H,8H,9H,10H-cyclohepta[b]indole-4-carboxylic acid]
fold induction at 10 µM [1]: 1.13
inhibition at 1 µM ([2]; 1 μM compound): 93.2%

CCCCCCC1CCCc2c(n(Cc3cccc(C(F)(F)F)n3)c3c(C(=O)O)cccc23)C1 (centres unmarked) [7-hexyl-5-{[6-(trifluoromethyl)pyridin-2-yl]methyl}-5H,6H,7H,8H,9H,10H-cyclohepta[b]indole-4-carboxylic acid]
inhibition at 1 µM ([2]; 1 μM compound): 79.7%

CCCCCCC1CCc2c(n(Cc3cccc(C(=O)O)c3)c3c(C(=O)O)cccc23)C1 (centres unmarked) [9-[(3-carboxyphenyl)methyl]-2-hexyl-2,3,4,9-tetrahydro-1H-carbazole-8-carboxylic acid]
fold induction at 10 µM [1]: 1.01
FABP4 inhibition (%) at 1 μM Mean ([2]; 1 μM compound): 42.40%
FABP4 inhibition (%) at 10 μM Mean ([2]; 10 μM compound): 80.24%

N#Cc1cccc(Cn2c3c(c4cccc(C(=O)O)c42)CCC(CCc2ccccc2)C3)c1 (centres unmarked) [9-[(3-cyanophenyl)methyl]-2-(2-phenylethyl)-2,3,4,9-tetrahydro-1H-carbazole-8-carboxylic acid]
inhibition at 1 µM ([2]; 1 μM compound): 92.7%

CCCCCCC1CCc2c(n(Cc3cccc(C#N)c3)c3c(C(=O)O)cccc23)C1 (centres unmarked) [9-[(3-cyanophenyl)methyl]-2-hexyl-2,3,4,9-tetrahydro-1H-carbazole-8-carboxylic acid]
fold induction at 10 µM [1]: 1.16

CCCCCC1CCc2c(n(Cc3cccc(C#N)c3)c3c(C(=O)O)cccc23)C1 (centres unmarked) [9-[(3-cyanophenyl)methyl]-2-pentyl-2,3,4,9-tetrahydro-1H-carbazole-8-carboxylic acid]
fold induction at 10 µM [1]: 1.34

CCCC1CCc2c(n(Cc3cccc(C#N)c3)c3c(C(=O)O)cccc23)C1 (centres unmarked) [9-[(3-cyanophenyl)methyl]-2-propyl-2,3,4,9-tetrahydro-1H-carbazole-8-carboxylic acid]
fold induction at 10 µM [1]: 1.21

CCC1CCc2c(c3cccc(C(=O)O)c3n2Cc2cccc(C#N)c2)C1 (centres unmarked) [9-[(3-cyanophenyl)methyl]-3-ethyl-2,3,4,9-tetrahydro-1H-carbazole-8-carboxylic acid]
fold induction at 10 µM [1]: 1.08

CCCCCC1CCc2c(c3cccc(C(=O)O)c3n2Cc2cccc(C#N)c2)C1 (centres unmarked) [9-[(3-cyanophenyl)methyl]-3-pentyl-2,3,4,9-tetrahydro-1H-carbazole-8-carboxylic acid]
fold induction at 10 µM [1]: 1.17

CCCC1CCc2c(c3cccc(C(=O)O)c3n2Cc2cccc(C#N)c2)C1 (centres unmarked) [9-[(3-cyanophenyl)methyl]-3-propyl-2,3,4,9-tetrahydro-1H-carbazole-8-carboxylic acid]
fold induction at 10 µM [1]: 1.2

N#Cc1cccc(Cn2c3c(c4cccc(C(=O)O)c42)C(CCc2ccccc2)CCC3)c1 (centres unmarked) [9-[(3-cyanophenyl)methyl]-4-(2-phenylethyl)-2,3,4,9-tetrahydro-1H-carbazole-8-carboxylic acid]
fold induction at 10 µM [1]: 1.1

CCCCCC1CCCc2c1c1cccc(C(=O)O)c1n2Cc1cccc(C#N)c1 (centres unmarked) [9-[(3-cyanophenyl)methyl]-4-pentyl-2,3,4,9-tetrahydro-1H-carbazole-8-carboxylic acid]
fold induction at 10 µM [1]: 1.13

CCCCC1CCCCc2c1c1cccc(C(=O)O)c1n2Cc1cccc(C(N)=O)c1 (centres unmarked) [10-butyl-5-[(3-carbamoylphenyl)methyl]-5H,6H,7H,8H,9H,10H-cyclohepta[b]indole-4-carboxylic acid]
fold induction at 10 µM [1]: 1.14

CCCCC1CCCCc2c1c1cccc(C(=O)O)c1n2Cc1cccc(C#N)c1 (centres unmarked) [10-butyl-5-[(3-cyanophenyl)methyl]-5H,6H,7H,8H,9H,10H-cyclohepta[b]indole-4-carboxylic acid]
fold induction at 10 µM [1]: 1.24

— patent US20230331673A1, “COMPOSITION OF COMPOUNDS THAT MODULATE CELL METABOLISM AND METHODS OF USE” (CRESCENTA BIOSCIENCES, priority 2020, published 2023)
